The molecules below were run against BTK (Homo sapiens (Human), UniProt Q06187) (assay: Btk in vitro inhibitory activity (one of Method A TR-FRET, Method B electrophoretic mobility shift, Method C radiometric filter binding)). Conditions: not given.
Assay type: biochemical

BTK, sequence (Q06187 whole entry): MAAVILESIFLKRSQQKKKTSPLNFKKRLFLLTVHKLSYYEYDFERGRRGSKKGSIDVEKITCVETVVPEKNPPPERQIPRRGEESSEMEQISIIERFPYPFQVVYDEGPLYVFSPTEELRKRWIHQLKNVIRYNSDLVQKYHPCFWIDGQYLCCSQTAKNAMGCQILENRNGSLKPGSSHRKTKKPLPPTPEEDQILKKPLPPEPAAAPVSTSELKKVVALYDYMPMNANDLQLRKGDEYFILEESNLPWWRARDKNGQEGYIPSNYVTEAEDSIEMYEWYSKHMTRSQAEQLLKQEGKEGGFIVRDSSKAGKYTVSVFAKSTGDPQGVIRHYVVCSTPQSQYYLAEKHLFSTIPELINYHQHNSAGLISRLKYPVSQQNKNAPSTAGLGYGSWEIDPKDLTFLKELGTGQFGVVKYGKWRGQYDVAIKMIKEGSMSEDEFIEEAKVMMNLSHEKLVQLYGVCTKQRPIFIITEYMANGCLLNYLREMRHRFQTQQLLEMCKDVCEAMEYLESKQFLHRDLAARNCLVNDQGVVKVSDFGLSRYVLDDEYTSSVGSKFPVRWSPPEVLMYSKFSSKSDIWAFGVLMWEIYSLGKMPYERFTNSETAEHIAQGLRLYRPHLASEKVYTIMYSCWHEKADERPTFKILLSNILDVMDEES

| Compound | IC50 |
| --- | --- |
| CC(C)(C)c1ccc(C(=O)N[C@@H]2CCCN(c3nnc(C(N)=O)c(Nc4ccc(S(C)(=O)=O)cc4)n3)C2)cc1 [Example 55, (R)-3-(3-(4-tert-butylbenzamido)piperidin-1-yl)-5-(4-(methylsulfonyl)phenylamino)-1,2,4-triazine-6-carboxamide] | 10 to 100 nM |

Same assay, conditions: determined using one of the methods of Example 355a, 355b and 355c; read-out: BTK IC50

| Compound | IC50 |
| --- | --- |
| CC#CC(=O)N[C@@H]1CCCN(c2nnc(C(N)=O)c(Nc3ccc(C(=O)N4CCOCC4)cc3)n2)C1 [Example 23, (R)-3-(3-but-2-ynamidopiperidin-1-yl)-5-(4-(morpholine-4-carbonyl)phenylamino)-1,2,4-triazine-6-carboxamide] | 10 to 100 nM |
| CC(C)C(=O)N[C@@H]1CCCN(c2nnc(C(N)=O)c(Nc3ccc(C(=O)N4CCOCC4)cc3)n2)C1 [Example 24, (R)-3-(3-isobutyramidopiperidin-1-yl)-5-(4-(morpholine-4-carbonyl)phenylamino)-1,2,4-triazine-6-carboxamide] | 10 to 100 nM |
| NC(=O)c1nnc(N2CCC[C@@H](NC(=O)C3CC3)C2)nc1Nc1ccc(C(=O)N2CCOCC2)cc1 [Example 25, (R)-3-(3-(cyclopropanecarboxamido)piperidin-1-yl)-5-(4-(morpholine-4-carbonyl)phenylamino)-1,2,4-triazine-6-carboxamide] | 10 to 100 nM |
| N#CC1(C(=O)N[C@@H]2CCCN(c3nnc(C(N)=O)c(Nc4ccc(C(=O)N5CCOCC5)cc4)n3)C2)CC1 [Example 28, (R)-3-(3-(1-cyanocyclopropanecarboxamido)piperidin-1-yl)-5-(4-(morpholine-4-carbonyl)phenylamino)-1,2,4-triazine-6-carboxamide] | 10 to 100 nM |
| NC(=O)c1nnc(N2CCC[C@@H](NC(=O)C3CCCC3)C2)nc1Nc1ccc(C(=O)N2CCOCC2)cc1 [Example 29, (R)-3-(3-(cyclopentanecarboxamido)piperidin-1-yl)-5-(4-(morpholine-4-carbonyl)phenylamino)-1,2,4-triazine-6-carboxamide] | 10 to 100 nM |
| NC(=O)c1nnc(N2CCC[C@@H](NC(=O)C3CCOCC3)C2)nc1Nc1ccc(C(=O)N2CCOCC2)cc1 [Example 30, (R)-5-(4-(morpholine-4-carbonyl)phenylamino)-3-(3-(tetrahydro-2H-pyran-4-carboxamido)piperidin-1-yl)-1,2,4-triazine-6-carboxamide] | 10 to 100 nM |
| CN1CCC(C(=O)N[C@@H]2CCCN(c3nnc(C(N)=O)c(Nc4ccc(C(=O)N5CCOCC5)cc4)n3)C2)CC1 [Example 31, (R)-3-(3-(1-methylpiperidine-4-carboxamido)piperidin-1-yl)-5-(4-(morpholine-4-carbonyl)phenylamino)-1,2,4-triazine-6-carboxamide] | 10 to 100 nM |
| NC(=O)c1nnc(N2CCC[C@@H](NC(=O)C3CCN(C4CC4)CC3)C2)nc1Nc1ccc(C(=O)N2CCOCC2)cc1 [Example 32, (R)-3-(3-(1-cyclopropylpiperidine-4-carboxamido)piperidin-1-yl)-5-(4-(morpholine-4-carbonyl)phenylamino)-1,2,4-triazine-6-carboxamide] | 10 to 100 nM |
| NC(=O)c1nnc(N2CCC[C@@H](NC(=O)C3CCN(C4CCCC4)CC3)C2)nc1Nc1ccc(C(=O)N2CCOCC2)cc1 [Example 33, (R)-3-(3-(1-cyclopentylpiperidine-4-carboxamido)piperidin-1-yl)-5-(4-(morpholine-4-carbonyl)phenylamino)-1,2,4-triazine-6-carboxamide] | 10 to 100 nM |
| NC(=O)c1nnc(N2CCC[C@@H](NC(=O)N3CCCC3)C2)nc1Nc1ccc(C(=O)N2CCOCC2)cc1 [Example 35, (R)-5-(4-(morpholine-4-carbonyl)phenylamino)-3-(3-(pyrrolidine-1-carboxamido)piperidin-1-yl)-1,2,4-triazine-6-carboxamide] | 10 to 100 nM |
| NC(=O)c1nnc(N2CCC[C@@H](NC(=O)N3CCC(N4CCCCC4)CC3)C2)nc1Nc1ccc(C(=O)N2CCOCC2)cc1 [Example 37, (R)—N-(1-(6-carbamoyl-5-(4-(morpholine-4-carbonyl)phenylamino)-1,2,4-triazin-3-yl)piperidin-3-yl)-1,4′-bipiperidine-1′-carboxamide] | 10 to 100 nM |
| NC(=O)c1nnc(N2CCC[C@@H](NC(=O)N3CCOCC3)C2)nc1Nc1ccc(C(=O)N2CCOCC2)cc1 [Example 38, (R)—N-(1-(6-carbamoyl-5-(4-(morpholine-4-carbonyl)phenylamino)-1,2,4-triazin-3-yl)piperidin-3-yl)morpholine-4-carboxamide] | 10 to 100 nM |
| CN(C(=O)N[C@@H]1CCCN(c2nnc(C(N)=O)c(Nc3ccc(C(=O)N4CCOCC4)cc3)n2)C1)c1ccccc1 [Example 39, (R)-3-(3-(3-methyl-3-phenylureido)piperidin-1-yl)-5-(4-(morpholine-4-carbonyl)phenylamino)-1,2,4-triazine-6-carboxamide] | 10 to 100 nM |
| NC(=O)c1nnc(N2CCC[C@@H](NS(=O)(=O)c3ccccc3)C2)nc1Nc1ccc(C(=O)N2CCOCC2)cc1 [Example 41, (R)-5-(4-(morpholine-4-carbonyl)phenylamino)-3-(3-(phenylsulfonamido)piperidin-1-yl)-1,2,4-triazine-6-carboxamide] | < 10 nM |
| NC(=O)c1nnc(N2CCC[C@@H](N3CCCC3=O)C2)nc1Nc1ccc(C(=O)N2CCOCC2)cc1 [Example 44, (R)-5-(4-(morpholine-4-carbonyl)phenylamino)-3-(3-(2-oxopyrrolidin-1-yl)piperidin-1-yl)-1,2,4-triazine-6-carboxamide] | 10 to 100 nM |
| NC(=O)c1nnc(N2CCC[C@@H](Oc3nccc4ccccc34)C2)nc1Nc1ccc(C(=O)N2CCOCC2)cc1 [Example 45, (R)-3-(3-(isoquinolin-1-yloxy)piperidin-1-yl)-5-(4-(morpholine-4-carbonyl)phenylamino)-1,2,4-triazine-6-carboxamide] | 100 to 1000 nM |
| CC(C)OC(=O)NN(C(=O)OC(C)C)[C@@H]1CCCN(c2nnc(C(N)=O)c(Nc3ccc(C(=O)N4CCOCC4)cc3)n2)C1 [Example 46, (R)-diisopropyl 1-(1-(6-carbamoyl-5-(4-(morpholine-4-carbonyl)phenylamino)-1,2,4-triazin-3-yl)piperidin-3-yl)hydrazine-1,2-dicarboxylate] | 10 to 100 nM |
| NC(=O)c1nnc(N2CCC[C@@H](n3ccc4cc(C5CC5)cc(F)c4c3=O)C2)nc1Nc1ccc(C(=O)N2CCOCC2)cc1 [Example 47, (R)-3-(3-(6-cyclopropyl-8-fluoro-1-oxoisoquinolin-2(1H)-yl)piperidin-1-yl)-5-(4-(morpholine-4-carbonyl)phenylamino)-1,2,4-triazine-6-carboxamide] | < 10 nM |
| NC(=O)c1nnc(N2CCC[C@@H](Oc3nccc4cc(C5CC5)cc(F)c34)C2)nc1Nc1ccc(C(=O)N2CCOCC2)cc1 [Example 48, (R)-3-(3-(6-cyclopropyl-8-fluoroisoquinolin-1-yloxy)piperidin-1-yl)-5-(4-(morpholine-4-carbonyl)phenylamino)-1,2,4-triazine-6-carboxamide] | 100 to 1000 nM |
| NC(=O)c1nnc(N2CC[C@@H](NC(=O)C(F)(F)F)C2)nc1Nc1ccc(C(=O)N2CCOCC2)cc1 [Example 51, (R)-5-(4-(morpholine-4-carbonyl)phenylamino)-3-(3-(2,2,2-trifluoroacetamido)pyrrolidin-1-yl)-1,2,4-triazine-6-carboxamide] | 100 to 1000 nM |
| CC(C)(C)c1ccc(C(=O)N[C@@H]2CCCN(c3nnc(C(N)=O)c(Nc4ccc(S(C)(=O)=O)cc4)n3)C2)cc1 [Example 55, (R)-3-(3-(4-tert-butylbenzamido)piperidin-1-yl)-5-(4-(methylsulfonyl)phenylamino)-1,2,4-triazine-6-carboxamide] | < 10 nM |

Other lines, results leading:

| IC50 | Compound |
| --- | --- |
| 10 to 100 nM | NC(=O)c1nnc(N2CCC[C@@H](NC(=O)c3ccn4ccnc4c3)C2)nc1Nc1ccc(C(=O)N2CCOCC2)cc1 [Example 20, (R)—N-(1-(6-carbamoyl-5-(4-(morpholine-4-carbonyl)phenylamino)-1,2,4-triazin-3-yl)piperidin-3-yl)imidazo[1,2-a]pyridine-7-carboxamide] |
| 100 to 1000 nM | CC(C)(C)c1ccc(C(=O)N[C@@H]2CCN(c3nnc(C(N)=O)c(Nc4ccc(C(=O)N5CCOCC5)cc4)n3)C2)cc1 [Example 49, (R)-3-(3-(4-tert-butylbenzamido)pyrrolidin-1-yl)-5-(4-(morpholine-4-carbonyl)phenylamino)-1,2,4-triazine-6-carboxamide] |
| 100 to 1000 nM | NC(=O)c1nnc(N2CC[C@@H](NC(=O)c3ccccc3)C2)nc1Nc1ccc(C(=O)N2CCOCC2)cc1 [Example 50, (R)-3-(3-benzamidopyrrolidin-1-yl)-5-(4-(morpholine-4-carbonyl)phenylamino)-1,2,4-triazine-6-carboxamide] |
| 100 to 1000 nM | CC(C)(C)c1ccc(C(=O)N[C@@H]2CCCN(c3nnc(C(N)=O)c(Nc4cncc(F)c4)n3)C2)cc1 [Example 52, (R)-3-(3-(4-tert-butylbenzamido)piperidin-1-yl)-5-(5-fluoropyridin-3-ylamino)-1,2,4-triazine-6-carboxamide] |
| 1000 to 10000 nM | Cc1ccc(Nc2nc(N3CCC[C@@H](NC(=O)c4ccc(C(C)(C)C)cc4)C3)nnc2C(N)=O)cc1 [Example 53, (R)-3-(3-(4-tert-butylbenzamido)piperidin-1-yl)-5-(p-tolylamino)-1,2,4-triazine-6-carboxamide] |
| 1000 to 10000 nM | Cc1cccc(Nc2nc(N3CCC[C@@H](NC(=O)c4ccc(C(C)(C)C)cc4)C3)nnc2C(N)=O)c1 [Example 54, (R)-3-(3-(4-tert-butylbenzamido)piperidin-1-yl)-5-(m-tolylamino)-1,2,4-triazine-6-carboxamide] |
| 100 to 1000 nM | CC(C)(C)c1ccc(C(=O)N[C@@H]2CCCN(c3nnc(C(N)=O)c(Nc4ccc(-c5ncccn5)cc4)n3)C2)cc1 [Example 56, (R)-3-(3-(4-tert-butylbenzamido)piperidin-1-yl)-5-(4-(pyrimidin-2-yl)phenylamino)-1,2,4-triazine-6-carboxamide] |
| 100 to 1000 nM | CC(C)(C)c1ccc(C(=O)N[C@@H]2CCCN(c3nnc(C(N)=O)c(Nc4cccc(-c5ncccn5)c4)n3)C2)cc1 [Example 57, (R)-3-(3-(4-tert-butylbenzamido)piperidin-1-yl)-5-(3-(pyrimidin-2-yl)phenylamino)-1,2,4-triazine-6-carboxamide] |
| 10 to 100 nM | CC(C)(C)c1ccc(C(=O)N[C@@H]2CCCN(c3nnc(C(N)=O)c(Nc4ccc(-c5ncco5)cc4)n3)C2)cc1 [Example 58, (R)-3-(3-(4-tert-butylbenzamido)piperidin-1-yl)-5-(4-(oxazol-2-yl)phenylamino)-1,2,4-triazine-6-carboxamide] |
